Source: BindingDB's records for patent US20240294545 (Cspc Zhongqi Pharmaceutical Technology (Shijiazhuang), 2024)

Experiments:
[1] = molecular target: Serine-protein kinase ATM (Homo sapiens, UniProt Q13315); assay: Inhibitory Activities of Compounds on ATM
Procedure: To a 96-well plate, 98 μL of DMSO and 2 μL of the 10 mM stock solution were added and mixed evenly so that the concentration of the solution was 200 μM.

[2] = molecular target: Serine/threonine-protein kinase ATR (Homo sapiens, UniProt Q13535); assay: Inhibitory Activity of Compounds on ATR
Procedure: (1) Preparation of 1 kinase buffer and reaction termination solution1) 1 kinase buffer50 mM HEPES, pH 7.50.0015% Brij-[…] MnCl22) Reaction termination solution100 mM HEPES, pH 7.50.015% Brij-350.2% Coating Reagent #350 mM EDTA(2) Preparation of test compound1) The compound was dissolved in DMSO to yield a stock solution. Before the assay, to a 96-well plate, 30 uL of a 10 mM stock solution was taken and added with 60 uL of DMSO. […] 10 µL of the 2 substrate solution was taken to each well of the test plate.3) Kinase reaction:After incubation at 28 C. for a certain time, 30 uL of the reaction termination solution was added to terminate the enzymatic reaction.(5) Reading of the reaction wells(6) Calculation of inhibitory rates by means of curve fitting to the read values.% inhibitory rate=(max+-sample value)/(max+-min)*100; wherein max represents the value of the total reaction well with DMSO but no compound; min represents the value of the blank control well without enzyme and compound.

[3] = molecular target: DNA-dependent protein kinase catalytic subunit (Homo sapiens, UniProt P78527); assay: Inhibitory Activities of Compounds on DNA-PK Kinase: ADP-Glo Kinase Assay
Procedure: (1) Preparation of 1× kinase buffer40 mM Tris, pH 7.50.0055% Brij-3520 mM MgCl20.05 mM DTT(2) Preparation of test compound1) The compound was dissolved in DMSO to yield a stock solution. Before the assay, the stock solution of the compound was diluted with DMSO to yield a 100× solution at a concentration that is 100 times a target concentration for assay. […] The test plate was shaken for mixing evenly.3) Kinase reactionEach well of the test plate was covered and incubated at room temperature for 3 h.(4) Kinase detection1) The ADP-Glo reagent was equilibrated at room temperature.2) 5 μL of ADP-Glo reagent was added to each well of the test plate to terminate the reaction.3) The plate was centrifuged for a short time to mix evenly, shaken gently, and equilibrated for 120 min.4) 10 μL of kinase detection reagent was added to each well, with shaking for 1 min, after equilibrating for 30 min, […] detection was performed.(5) Reading of the reaction wells(6) Calculation of inhibitory rates by means of curve fitting to the read values.

[4] = molecular target: Phosphatidylinositol 4,5-bisphosphate 3-kinase catalytic subunit beta isoform (Homo sapiens, UniProt P42338); assay: Inhibitory Activities of Compounds on PI3Kα, PI3Kβ, PI3Kγ, and PI3Kδ Kinase: ADP-Glo Kinase Assay
Procedure: (§1) (1) Preparation of 1× kinase buffer50 mM HEPES, pH 7.53 mM MgCl21 mM EGTA100 mM NaCl0.03% CHAPS2 mM DTT(2) Preparation of test compound1) Dissolution and dilution of compound:The compound was dissolved in DMSO to yield a stock solution. Before the assay, the stock solution of the compound was diluted with DMSO in a 384-well plate to yield a 100× solution at a concentration that is 100 times a target concentration for assay.50 μL of DMSO was added, respectively, into two blank wells in the same 384 well plate, corresponding to the total reaction control without compound and the blank control without enzyme.2) Preparation of test plate: 50 nL of the compound solution in each of the above wells was taken to a test plate.(3) Kinase reaction1) PI3Kα, PI3Kβ, PI3Kγ, and PI3Kδ kinases were dissolved, respectively, in 1× kinase buffer to yield a 2× enzyme solution at a concentration that is twice the final concentration. 2.5 µL of the 2× enzyme solution was taken to each well of the test plate. The blank control without enzyme was added with 2.5 μL of the 1× kinase buffer instead of the enzyme solution. The test plate was shaken for mixing evenly.2) PIP2 substrate and ATP were dissolved in the 1× kinase buffer to yield a 2× substrate solution that is twice the final concentration. 2.5 μL of the 2× substrate solution was taken to each well of the test plate. The test plate was shaken for mixing evenly.3) Kinase reactionEach well of the test plate was covered and incubated at room temperature for 1 h.(4) Kinase detection1) The ADP-Glo reagent was equilibrated at room temperature.2) 5 μL of ADP-Glo reagent was added to each well of the test plate to terminate the reaction.3) The plate was centrifuged for a short time to mix evenly, shaken gently, and equilibrated for 120 min.4) 10 μL of kinase detection reagent was added to each well, with shaking for 1 min, after equilibrating for 30 min, […] detection was performed.(5) Reading of the reaction wells(6) Calculation of inhibitory rates by means of curve fitting to the read values

[5] = molecular target: T1, Phosphatidylinositol 4,5-bisphosphate 3-kinase catalytic subunit delta isoform (Homo sapiens, UniProt O00329); assay: as above
T1 sequence (O00329 whole entry): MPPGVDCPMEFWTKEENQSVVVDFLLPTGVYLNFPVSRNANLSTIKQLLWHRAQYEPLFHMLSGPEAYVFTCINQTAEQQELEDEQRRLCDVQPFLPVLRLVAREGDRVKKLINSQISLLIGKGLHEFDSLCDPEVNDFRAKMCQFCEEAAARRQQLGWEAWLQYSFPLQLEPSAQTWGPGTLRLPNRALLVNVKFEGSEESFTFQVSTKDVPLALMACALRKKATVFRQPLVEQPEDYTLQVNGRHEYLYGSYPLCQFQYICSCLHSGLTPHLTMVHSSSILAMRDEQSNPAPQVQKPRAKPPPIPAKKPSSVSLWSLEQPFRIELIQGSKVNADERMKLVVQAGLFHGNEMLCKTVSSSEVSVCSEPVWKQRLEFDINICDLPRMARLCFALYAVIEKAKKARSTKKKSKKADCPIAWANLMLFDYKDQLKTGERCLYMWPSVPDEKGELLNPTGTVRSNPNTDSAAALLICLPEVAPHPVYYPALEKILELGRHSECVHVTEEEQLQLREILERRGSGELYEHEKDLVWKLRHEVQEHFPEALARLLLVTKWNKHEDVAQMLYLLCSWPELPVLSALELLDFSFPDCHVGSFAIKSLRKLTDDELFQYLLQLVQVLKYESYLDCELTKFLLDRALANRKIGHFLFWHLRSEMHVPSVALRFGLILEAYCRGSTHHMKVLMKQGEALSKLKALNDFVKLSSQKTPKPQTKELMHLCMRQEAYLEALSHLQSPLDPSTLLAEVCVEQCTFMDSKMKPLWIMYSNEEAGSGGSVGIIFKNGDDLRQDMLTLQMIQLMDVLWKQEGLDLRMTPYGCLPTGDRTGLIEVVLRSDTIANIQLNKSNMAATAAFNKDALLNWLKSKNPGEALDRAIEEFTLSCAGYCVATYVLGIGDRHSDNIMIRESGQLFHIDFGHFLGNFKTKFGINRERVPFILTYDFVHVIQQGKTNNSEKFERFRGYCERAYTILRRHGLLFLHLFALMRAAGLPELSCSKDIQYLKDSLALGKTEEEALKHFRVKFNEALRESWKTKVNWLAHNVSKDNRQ
Procedure: as §1

[6] = molecular target: Phosphatidylinositol 4,5-bisphosphate 3-kinase catalytic subunit gamma isoform (Homo sapiens, UniProt P48736); assay: as above
Sequence of Phosphatidylinositol 4,5-bisphosphate 3-kinase catalytic subunit gamma isoform (P48736 whole entry, canonical isoform): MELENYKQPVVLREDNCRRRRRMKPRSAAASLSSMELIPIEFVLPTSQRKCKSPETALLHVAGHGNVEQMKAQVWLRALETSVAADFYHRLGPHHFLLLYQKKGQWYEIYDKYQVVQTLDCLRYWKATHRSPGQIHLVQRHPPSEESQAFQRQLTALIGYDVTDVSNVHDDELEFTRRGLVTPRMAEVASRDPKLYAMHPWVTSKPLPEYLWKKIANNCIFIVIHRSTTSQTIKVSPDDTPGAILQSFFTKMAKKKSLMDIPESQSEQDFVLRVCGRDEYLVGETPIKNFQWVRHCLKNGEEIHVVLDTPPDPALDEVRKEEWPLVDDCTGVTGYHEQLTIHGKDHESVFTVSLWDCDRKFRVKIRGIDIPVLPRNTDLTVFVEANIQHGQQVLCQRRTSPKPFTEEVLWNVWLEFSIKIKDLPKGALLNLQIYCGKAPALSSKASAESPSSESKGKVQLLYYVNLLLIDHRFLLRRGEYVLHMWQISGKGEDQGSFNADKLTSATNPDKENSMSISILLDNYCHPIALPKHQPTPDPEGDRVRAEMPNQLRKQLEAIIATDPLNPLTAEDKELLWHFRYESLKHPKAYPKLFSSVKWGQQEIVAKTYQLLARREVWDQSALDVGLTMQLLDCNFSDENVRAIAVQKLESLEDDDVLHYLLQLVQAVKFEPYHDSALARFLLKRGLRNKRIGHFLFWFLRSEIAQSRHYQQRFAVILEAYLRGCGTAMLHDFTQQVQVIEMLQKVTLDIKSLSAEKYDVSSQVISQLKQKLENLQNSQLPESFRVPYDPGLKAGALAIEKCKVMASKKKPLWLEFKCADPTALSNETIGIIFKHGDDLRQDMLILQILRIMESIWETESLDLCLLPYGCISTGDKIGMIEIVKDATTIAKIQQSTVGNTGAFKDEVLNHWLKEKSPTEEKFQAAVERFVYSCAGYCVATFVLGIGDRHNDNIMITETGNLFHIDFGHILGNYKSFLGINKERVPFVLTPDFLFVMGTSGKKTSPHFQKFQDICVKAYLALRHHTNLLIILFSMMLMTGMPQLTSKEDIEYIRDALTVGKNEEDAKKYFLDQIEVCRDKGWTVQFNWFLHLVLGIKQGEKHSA
Procedure: as §1

[7] = molecular target: Phosphatidylinositol 4,5-bisphosphate 3-kinase catalytic subunit alpha isoform (Homo sapiens, UniProt P42336); assay: as above
Procedure: as §1

Sequence of Serine-protein kinase ATM (Q13315 whole entry): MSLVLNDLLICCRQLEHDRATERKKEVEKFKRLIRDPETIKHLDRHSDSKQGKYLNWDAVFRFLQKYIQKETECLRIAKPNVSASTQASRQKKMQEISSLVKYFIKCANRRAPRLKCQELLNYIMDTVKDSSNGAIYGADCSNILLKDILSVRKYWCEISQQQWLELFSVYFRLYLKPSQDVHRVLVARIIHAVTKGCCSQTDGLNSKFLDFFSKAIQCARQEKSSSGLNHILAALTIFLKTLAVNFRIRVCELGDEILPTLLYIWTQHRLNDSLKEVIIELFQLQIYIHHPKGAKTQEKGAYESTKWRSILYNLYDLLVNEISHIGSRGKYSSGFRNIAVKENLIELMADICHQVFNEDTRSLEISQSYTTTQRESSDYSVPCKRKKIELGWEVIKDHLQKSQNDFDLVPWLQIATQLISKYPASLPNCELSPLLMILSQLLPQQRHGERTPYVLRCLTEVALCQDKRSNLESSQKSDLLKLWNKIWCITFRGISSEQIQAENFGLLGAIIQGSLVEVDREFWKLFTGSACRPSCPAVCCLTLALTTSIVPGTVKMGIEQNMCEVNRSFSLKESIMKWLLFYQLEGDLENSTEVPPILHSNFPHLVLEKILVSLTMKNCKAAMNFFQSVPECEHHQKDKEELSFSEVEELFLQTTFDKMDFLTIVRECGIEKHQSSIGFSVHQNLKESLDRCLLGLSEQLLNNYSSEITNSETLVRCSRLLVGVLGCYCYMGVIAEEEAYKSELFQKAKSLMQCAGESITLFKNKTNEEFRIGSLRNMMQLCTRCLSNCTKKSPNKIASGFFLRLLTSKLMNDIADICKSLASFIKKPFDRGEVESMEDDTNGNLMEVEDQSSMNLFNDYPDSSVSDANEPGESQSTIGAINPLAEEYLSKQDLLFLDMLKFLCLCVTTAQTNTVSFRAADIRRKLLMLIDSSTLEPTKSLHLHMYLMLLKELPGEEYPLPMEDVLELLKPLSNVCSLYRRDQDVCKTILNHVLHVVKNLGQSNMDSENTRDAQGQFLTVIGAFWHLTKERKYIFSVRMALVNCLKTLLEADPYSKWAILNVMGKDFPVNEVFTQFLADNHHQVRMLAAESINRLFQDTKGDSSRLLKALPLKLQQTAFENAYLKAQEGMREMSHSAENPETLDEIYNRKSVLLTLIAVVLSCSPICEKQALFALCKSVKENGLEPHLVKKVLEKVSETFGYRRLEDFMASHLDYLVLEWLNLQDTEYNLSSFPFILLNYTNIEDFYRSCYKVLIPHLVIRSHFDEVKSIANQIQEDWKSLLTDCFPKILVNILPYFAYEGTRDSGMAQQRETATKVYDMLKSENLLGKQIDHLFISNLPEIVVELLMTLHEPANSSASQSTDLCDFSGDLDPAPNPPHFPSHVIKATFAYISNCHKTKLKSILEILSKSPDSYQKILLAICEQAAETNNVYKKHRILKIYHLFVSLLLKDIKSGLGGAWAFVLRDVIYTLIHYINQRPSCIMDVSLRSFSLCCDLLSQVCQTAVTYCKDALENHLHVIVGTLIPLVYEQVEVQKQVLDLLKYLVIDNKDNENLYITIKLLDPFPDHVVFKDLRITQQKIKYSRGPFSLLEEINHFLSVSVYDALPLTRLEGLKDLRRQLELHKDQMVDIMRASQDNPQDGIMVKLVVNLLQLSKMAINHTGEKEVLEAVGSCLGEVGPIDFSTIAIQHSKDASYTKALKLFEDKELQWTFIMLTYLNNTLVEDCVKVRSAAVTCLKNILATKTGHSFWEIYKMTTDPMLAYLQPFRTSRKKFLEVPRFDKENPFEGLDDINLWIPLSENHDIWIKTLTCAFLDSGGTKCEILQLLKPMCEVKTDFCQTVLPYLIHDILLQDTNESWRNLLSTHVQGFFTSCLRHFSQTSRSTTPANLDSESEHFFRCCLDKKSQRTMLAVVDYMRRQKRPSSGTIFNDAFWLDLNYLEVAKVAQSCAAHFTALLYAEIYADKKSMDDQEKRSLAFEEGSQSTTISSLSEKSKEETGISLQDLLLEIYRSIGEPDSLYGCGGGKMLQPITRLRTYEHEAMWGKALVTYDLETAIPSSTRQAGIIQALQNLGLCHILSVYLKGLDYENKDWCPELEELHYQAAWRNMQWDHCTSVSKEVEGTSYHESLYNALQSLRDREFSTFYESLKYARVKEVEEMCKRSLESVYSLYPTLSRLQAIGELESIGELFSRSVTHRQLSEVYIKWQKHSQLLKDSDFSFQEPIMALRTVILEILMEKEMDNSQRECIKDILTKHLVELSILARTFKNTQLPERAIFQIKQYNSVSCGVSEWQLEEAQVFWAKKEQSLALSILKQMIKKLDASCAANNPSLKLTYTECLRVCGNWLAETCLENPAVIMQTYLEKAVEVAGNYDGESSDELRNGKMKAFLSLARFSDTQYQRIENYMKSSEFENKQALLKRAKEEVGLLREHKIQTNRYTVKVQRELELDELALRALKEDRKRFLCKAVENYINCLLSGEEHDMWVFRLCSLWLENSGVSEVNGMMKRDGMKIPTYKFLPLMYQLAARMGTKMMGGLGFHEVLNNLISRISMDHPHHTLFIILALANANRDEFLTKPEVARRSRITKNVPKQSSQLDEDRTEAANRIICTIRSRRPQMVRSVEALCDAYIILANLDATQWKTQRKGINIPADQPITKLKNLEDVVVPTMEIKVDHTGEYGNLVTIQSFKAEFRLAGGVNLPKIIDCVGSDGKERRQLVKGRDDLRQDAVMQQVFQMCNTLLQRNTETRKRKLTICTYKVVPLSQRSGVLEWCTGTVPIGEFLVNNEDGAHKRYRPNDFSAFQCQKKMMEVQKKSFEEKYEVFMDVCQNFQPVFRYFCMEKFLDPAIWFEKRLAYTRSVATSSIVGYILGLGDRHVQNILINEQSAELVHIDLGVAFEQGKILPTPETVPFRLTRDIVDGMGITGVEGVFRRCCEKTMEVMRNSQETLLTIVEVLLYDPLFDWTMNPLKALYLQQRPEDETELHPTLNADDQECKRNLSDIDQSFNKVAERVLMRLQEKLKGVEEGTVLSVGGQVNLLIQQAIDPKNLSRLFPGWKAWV

Q: Which IC50 [1] does the source give for `CC[C@@H]1CNc2c(-c3ccc(OCCCN4CCCCC4)nc3)c(F)cc3ncc4c(c23)n1c(=O)n4C` [US20240294545, Compound A-194] here?
A: Its IC50 is 0.45 nM.

Q: For `Cn1c(=O)n2c3c4c(c(-c5ccc(OCCCN6CCCCC6)nc5)c(F)cc4ncc31)OCC21CCOCC1` [US20240294545, Compound A-204], which IC50 [1] is on record?
A: The IC50 was 0.78 nM.

Q: `Cn1c(=O)n2c3c4c(c(-c5ccc(OCCCN6CC7CC7C6)nc5)c(F)cc4ncc31)OCC21CCC1` (stereo not given) [US20240294545, Compound A-170] was tested. Which IC50 [1] did it give?
A: The IC50 was 0.7 nM.

Q: For `Cn1c(=O)n2c3c4c(c(-c5ccc(OCCCN6CCCCC6)nc5)c(F)cc4ncc31)OC1CCCCC12` (stereo not given) [US20240294545, Compound A-21], which IC50 [2] is on record?
A: The IC50 was greater than 10000 nM.

Q: And the IC50 [3]?
A: Its IC50 is 2230 nM.

Q: And the IC50 [1]?
A: The IC50 was 0.45 nM.

Q: And the IC50 [4]?
A: The IC50 was greater than 10000 nM.

Q: What about the IC50 [5] of the same molecule?
A: Its IC50 is greater than 10000 nM.

Q: And the IC50 [6]?
A: The IC50 was greater than 10000 nM.

Q: What about the IC50 [7] of the same molecule?
A: The IC50 was greater than 10000 nM.

Q: With `COc1cc2ncc3c4c2c(oc2ccccc2n4c(=O)n3C)c1-c1cnn(C)c1` [US20240294545, Compound A-33] as the molecule, how does the IC50 [1] read?
A: The IC50 was 0.08 nM.

Q: With `Cn1c(=O)n2c3c4c(c(-c5ccc(OCCCN6CCC7(CC6)COC7)nc5)c(F)cc4ncc31)OCC21CCC1` [US20240294545, Compound A-167] as the molecule, how does the IC50 [1] read?
A: The IC50 was 0.33 nM.

Q: `Cn1c(=O)n2c3c4c(c(-c5ccc(OCCCN6CCC(C#N)CC6)nc5)c(F)cc4ncc31)OCC21CCC1` [US20240294545, Compound A-166] was tested. Which IC50 [1] did it give?
A: Its IC50 is 0.21 nM.

Q: Which IC50 [1] does the source give for `CC[C@@H]1CNc2c(-c3ccc(OCCCN4CCCCC4)nc3)ccc3ncc4c(c23)n1c(=O)n4C` [US20240294545, Compound A-201] here?
A: The IC50 was 0.61 nM.

Q: For `Cn1c(=O)n2c3c4c(c(-c5ccc(OCCCN6CCC(F)CC6)nc5)c(F)cc4ncc31)OCC21CCC1` [US20240294545, Compound A-165], which IC50 [1] is on record?
A: The IC50 was 0.37 nM.
